# Like-named read-outs stand apart in the source and are kept apart here.
# How the values were obtained:
# Experiment in all cases: Post-emergence efficacy, Method A
# Type in all cases: in vivo
# Lolium perenne (LOLPE) = settings: evaluated after 13 days; for pest or weed control at 500 g/ha: Lolium perenne, post-emergence, 312 h
# Method in brief: (§1)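 Plants raised 14 days from seed in standard soil in a glasshouse (24/16 °C day/night, 14 h light, 65% humidity) were sprayed with compound dissolved in acetone plus IF50 solvent/emulsifier (50 g/l solution), diluted with 0.25% or 1% Empicol ESC70 + 1% ammonium sulphate. Damage was scored visually after 13 days (0 = none, 100 = total).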
# [1] = tested on: Euphorbia heterophylla (EPHHL); settings: evaluated after 13 days; for pest or weed control at 500 g/ha: Euphorbia heterophylla, post-emergence, 312 h
# Method in brief: as §1
# [2] = tested on: Digitaria sanguinalis (DIGSA); settings: evaluated after 13 days; for pest or weed control at 500 g/ha: Digitaria sanguinalis, post-emergence, 312 h
# Method in brief: as §1
# [3] = tested on: Amaranthus palmeri (AMAPA); settings: evaluated after 13 days; for pest or weed control at 500 g/ha: Amaranthus palmeri, post-emergence, 312 h
# Method in brief: as §1
# [4] = tested on: Chenopodium album (CHEAL); settings: evaluated after 13 days; for pest or weed control at 500 g/ha: Chenopodium album, post-emergence, 312 h
# Method in brief: as §1
# [5] = tested on: Ipomoea hederacea (IPOHE); settings: evaluated after 13 days; for pest or weed control at 500 g/ha: Ipomoea hederacea, post-emergence, 312 h
# Method in brief: as §1
# Setaria faberi (SETFA) = settings: evaluated after 13 days; for pest or weed control at 500 g/ha: Setaria faberi, post-emergence, 312 h
# Method in brief: as §1
# [6] = tested on: Echinochloa crus-galli (ECHCG); settings: evaluated after 13 days; for pest or weed control at 500 g/ha: Echinochloa crus-galli, post-emergence, 312 h
# Method in brief: as §1
# Eleusine indica (ELEIN) = settings: evaluated after 13 days; for pest or weed control at 500 g/ha: Eleusine indica, post-emergence, 312 h
# Method in brief: as §1
# [7] = Application rate 500 g/Ha, 100=total damage to plant, 0=no damage to plant, read-out: Control of weed species after post-emergence application, LOLPE
# [8] = Application rate 500 g/Ha, 100=total damage to plant, 0=no damage to plant, read-out: Control of weed species after post-emergence application, EPHHL
# [9] = Application rate 500 g/Ha, 100=total damage to plant, 0=no damage to plant, read-out: Control of weed species after post-emergence application, DIGSA
# [10] = Application rate 500 g/Ha, 100=total damage to plant, 0=no damage to plant, read-out: Control of weed species after post-emergence application, AMAPA
# [11] = Application rate 500 g/Ha, 100=total damage to plant, 0=no damage to plant, read-out: Control of weed species after post-emergence application, CHEAL
# [12] = Application rate 500 g/Ha, 100=total damage to plant, 0=no damage to plant, read-out: Control of weed species after post-emergence application, IPOHE
# [13] = Application rate 500 g/Ha, 100=total damage to plant, 0=no damage to plant, read-out: Control of weed species after post-emergence application, SETFA
# [14] = Application rate 500 g/Ha, 100=total damage to plant, 0=no damage to plant, read-out: Control of weed species after post-emergence application, ECHCG
# [15] = Application rate 500 g/Ha, 100=total damage to plant, 0=no damage to plant, read-out: Control of weed species after post-emergence application, ELEIN
# [16] = Application Rate 500 g/Ha, Method A, read-out: Control of weed species after post-emergence application, LOLPE (100=total damage to plant; 0=no damage to plant)
# [17] = Application Rate 500 g/Ha, Method A, read-out: Control of weed species after post-emergence application, EPHHL (100=total damage to plant; 0=no damage to plant)
# [18] = Application Rate 500 g/Ha, Method A, read-out: Control of weed species after post-emergence application, DIGSA (100=total damage to plant; 0=no damage to plant)
# [19] = Application Rate 500 g/Ha, Method A, read-out: Control of weed species after post-emergence application, AMAPA (100=total damage to plant; 0=no damage to plant)
# [20] = Application Rate 500 g/Ha, Method A, read-out: Control of weed species after post-emergence application, CHEAL (100=total damage to plant; 0=no damage to plant)
# [21] = Application Rate 500 g/Ha, Method A, read-out: Control of weed species after post-emergence application, IPOHE (100=total damage to plant; 0=no damage to plant)
# [22] = Application Rate 500 g/Ha, Method A, read-out: Control of weed species after post-emergence application, SETFA (100=total damage to plant; 0=no damage to plant)
# [23] = Application Rate 500 g/Ha, Method A, read-out: Control of weed species after post-emergence application, ECHCG (100=total damage to plant; 0=no damage to plant)
# [24] = Application Rate 500 g/Ha, Method A, read-out: Control of weed species after post-emergence application, ELEIN (100=total damage to plant; 0=no damage to plant)
# [25] = Application Rate 500 g/Ha, Method A
SMILES,pest or weed control at 500 g/ha (Lolium perenne (LOLPE); [7]) [%],"pest or weed control at 500 g/ha [1, 8] [%]","pest or weed control at 500 g/ha [2, 9] [%]","pest or weed control at 500 g/ha [3, 10] [%]","pest or weed control at 500 g/ha [4, 11] [%]","pest or weed control at 500 g/ha [5, 12] [%]",pest or weed control at 500 g/ha (Setaria faberi (SETFA); [13]) [%],"pest or weed control at 500 g/ha [6, 14] [%]",pest or weed control at 500 g/ha (Eleusine indica (ELEIN); [15]) [%],pest or weed control at 500 g/ha (Lolium perenne (LOLPE); [16]) [%],"pest or weed control at 500 g/ha [1, 17] [%]","pest or weed control at 500 g/ha [2, 18] [%]","pest or weed control at 500 g/ha [3, 19] [%]","pest or weed control at 500 g/ha [4, 20] [%]","pest or weed control at 500 g/ha [5, 21] [%]",pest or weed control at 500 g/ha (Setaria faberi (SETFA); [22]) [%],"pest or weed control at 500 g/ha [6, 23] [%]",pest or weed control at 500 g/ha (Eleusine indica (ELEIN); [24]) [%],also measured
O=S(=O)([O-])CC[n+]1ccc(-c2ccc(Cl)cn2)cn1 [Compound A69],50,50,50,100,60,40,40,40,60,–,–,–,–,–,–,–,–,–,–
CC(CNS(=O)(=O)[O-])[n+]1ccc(-c2ncccn2)cn1 (stereo not drawn) [Compound A223],–,–,–,–,–,–,–,–,–,80,80,90,100,90,60,80,70,90,–
Cc1ccnc(-c2cc[n+](CCS(=O)(=O)[O-])nc2)n1 [Compound A21],80,80,90,100,80,40,90,60,100,–,–,–,–,–,–,–,–,–,–
CC(C[n+]1ccc(-c2ncccn2)cn1)NS(=O)(=O)[O-] (stereo not drawn) [Compound A221],–,–,–,–,–,–,–,–,–,60,90,100,100,90,60,80,60,100,–
CN(C)c1cnc(-c2cc[n+](CCC(=O)[O-])nc2)nc1 [Compound A42],0,30,50,50,0,20,50,30,20,–,–,–,–,–,–,–,–,–,–
O=S(=O)([O-])CC[n+]1ccc(-c2cccc(C(F)(F)F)n2)cn1 [Compound A74],60,60,50,60,30,50,80,60,80,–,–,–,–,–,–,–,–,–,–
OCCC[n+]1ccc(-c2ncccn2)cn1 [Compound A206],–,–,–,–,–,–,–,–,–,0,60,20,60,90,20,10,20,10,–
CC(C)(CC(=O)O)[n+]1ccc(-c2ccncn2)cn1 [Compound A189],–,–,–,–,–,–,–,–,–,30,90,50,100,100,70,70,80,90,–
O=S(=O)([O-])CCC[n+]1ccc(-c2ccc(-c3ccc(Cl)nn3)nn2)cn1 [Compound A168],–,–,–,–,–,–,–,–,–,10,30,10,0,40,20,10,20,20,–
O=S(=O)([O-])CC[n+]1ccc(-c2ncc(CO)cn2)cn1 [Compound A170],–,–,–,–,–,–,–,–,–,50,70,40,100,100,40,80,80,40,–
"COP(=O)(C[n+]1ccc(-c2ncccn2)cn1)OC.O=S(=O)([O-])C(F)(F)F [Compound A238, 1-(dimethoxyphosphorylmethyl)-4-pyrimidin-2-yl-pyridazin-1-ium trifluoromethanesulfonate]",–,–,–,–,–,–,–,–,–,–,–,–,–,–,–,–,–,–,"Control of weed species after post-emergence application, LOLPE (100=total damage to plant; 0=no damage to plant) (Lolium perenne (LOLPE); [25]): 10; Control of weed species after post-emergence application, EPHHL (100=total damage to plant; 0=no damage to plant) [1, 25]: 50; Control of weed species after post-emergence application, DIGSA (100=total damage to plant; 0=no damage to plant) [2, 25]: 50; Control of weed species after post-emergence application, AMAPA (100=total damage to plant; 0=no damage to plant) [3, 25]: 50; Control of weed species after post-emergence application, CHEAL (100=total damage to plant; 0=no damage to plant) [4, 25]: 20; Control of weed species after post-emergence application, IPOHE (100=total damage to plant; 0=no damage to plant) [5, 25]: 40; Control of weed species after post-emergence application, SETFA (100=total damage to plant; 0=no damage to plant) (Setaria faberi (SETFA); [25]): 50; Control of weed species after post-emergence application, ECHCG (100=total damage to plant; 0=no damage to plant) [6, 25]: 40; Control of weed species after post-emergence application, ELEIN (100=total damage to plant; 0=no damage to plant) (Eleusine indica (ELEIN); [25]): 30"
O=S(=O)([O-])CCC[n+]1ccc(-c2cnc(Cl)cn2)cn1 [Compound A79],0,10,20,10,30,0,10,10,20,–,–,–,–,–,–,–,–,–,–
Nc1cc(-c2cc[n+](CCC(=O)O)nc2)ccn1 [Compound A210],–,–,–,–,–,–,–,–,–,20,10,60,70,10,10,30,10,20,–
O=C(O)C(O)C[n+]1ccc(-c2ncccn2)cn1 (stereo not drawn) [Compound A180],–,–,–,–,–,–,–,–,–,30,80,60,100,90,20,70,70,90,–
O=C([O-])CC[n+]1ccc(-c2nccc(C(F)(F)F)n2)cn1 [Compound A39],60,90,70,100,90,0,40,30,80,–,–,–,–,–,–,–,–,–,–
